Assay results reported in patent US6403788B1, “Non-genotoxic metalloporphyrins as synthetic catalytic scavengers of reactive oxygen species” (Eukarion, Inc., priority 2000, dated 2002).

Tests used:
[1] = Superoxide dismutase activity, xanthine-xanthine oxidase / cytochrome C; assay type: biochemical; conditions: reciprocal of IC50; xanthine 60 μM, xanthine oxidase 0.009 units/ml, cytochrome C 27.8 μM
Method: Superoxide Dismutase Activity was measured by incubating the compound with a superoxide generating system (Xanthine, 60 μM-Xanthine Oxidase, 0.009 units/ml) and a detector molecule (Cytochrome C, 27.8 μM). Upon reacting with a molecule of superoxide, Cytochrome C undergoes a spectrum-shift which can be detected as an increase in absorbance at 550 nm. In this assay procedure, the reactant concentrations were adjusted to give a reaction rate close to 0.1 AU/min. at 2-3 min. after the reaction began. Addition of compounds with Superoxide Dismutase activity reduce the rate of absorbance change. Compounds were assayed at several concentrations (typically at 0, 2, 4, and 8 μM) and the resulting rates were graphed and fitted to a linear regression formula. The linear regression formula was then solved to determine the concentration of compound required to reduce the reaction rate to 50% of the rate without compound present (IC50).

[2] = system: ΦX 174 DNA Plasmid (Form I); conditions: literature (Bernadou 1989, Vialas 2000, Meunier 1992); cited from earlier work
[3] = Catalase activity, hydrogen peroxide consumed at 20 minutes; assay type: biochemical; conditions: over 20 minutes; 10 μM compound, 100 μM hydrogen peroxide, 40 mM sodium phosphate pH 7.4
Method: (§1) Catalase activity was measured by incubating the sample compound with hydrogen peroxide and determining the amount of hydrogen peroxide remaining after a period of time using a colorimetric peroxidase-coupled assay method. 10 μM sample compound and 100 μM hydrogen peroxide in 40 mM sodium phosphate pH 7.4 were incubated together at ambient temperature in a multi-well plate. After the desired reaction period had elapsed, 20 μl of peroxidase/ABTS reagent was added (peroxidase/ABTS reagent contained 100 μl of 50 mM Na phosphate, pH 7.4, 1 mg horseradish peroxidase (1310 U/mg) and […]). After five minutes, absorbance at 750 nm was determined. The amount of hydrogen peroxide remaining was calculated based on a standard curve. To compare rates of catalase reaction, the amount of hydrogen peroxide consumed at 20 minutes was determined (See table III). It was also of interest to determine the total number of turnovers completed by the compound before inactivation by hydrogen peroxide. This was assayed under similar conditions, except that 15.8 μM compound was combined with 1582 μM hydrogen peroxide in 5 mM Na phosphate, pH 7.4. Reactions were allowed to proceed to completion and then the amount of hydrogen peroxide remaining was determined as described above. Results showing […] in the turnover assay (nmoles hydrogen peroxide per nmole compound) are also shown in Table III.

[4] = Catalase turnover assay, total hydrogen peroxide consumed before inactivation; assay type: biochemical; conditions: to completion, 15.8 μM compound, 1582 μM hydrogen peroxide, 5 mM Na phosphate pH 7.4
Method: as §1

[5] = Peroxidase activity, ABTS oxidation; assay type: biochemical; conditions: 10 μM compound, 200 μM hydrogen peroxide, 500 μM ABTS, pH 8.1, 740 nm
Method: Peroxidase activity was measured by incubating 10 μM compound, 200 μM hydrogen peroxide and 500 μM ABTS in 50 mM sodium phosphate, pH 8.1. The rate of ABTS oxidation was monitored at 740 nm and initial rates (change in absorbance per min.) determined.

[6] = system: ΦX 174 DNA Plasmid (Form I); test: Cleavage of ΦX 174 DNA plasmid (form I), compound alone or activated with KHSO5; assay type: biochemical, phage ΦX 174; conditions: for S (single-strand breaks per DNA molecule) / form % I / form % II / form % III: DNA 3.5 nM, compound 10 nM
Description: The DNA cleavage activity was quantified in terms of number of single-strand breaks per DNA molecule according to the equation […], Io=% form I (supercoiled DNA) in the DNA control, and I=% form I in the experiment (see Bernadou et al, Biochemistry, 28: 7268-7275, (1989)). This assay is very sensitive and is able to detect very low levels of DNA activity. S values less than S=1.0 are indicative of very low DNA cleavage activity when the compounds are at a concentration of equal to or less than 1000 nM and KHSO5 is present at a concentration of equal to or less than 100 μM.
ΦX 174 DNA digestion conditions for standard experiments were as follows: commercially available DNA was diluted to 50 μg/mL in phosphate buffer (10 mM, pH 7.5). The reaction involved 5 μL of ΦX 174 DNA (50 μg/mL, 74.8 μM in base pairs), 5 μL of 40 mM phosphate buffer, pH 7.5 with 400 mM NaCl, 5 μL of metalloporphyrin in double-distilled water or 5 μL of iron-bleomycin complex in double-distilled water, and 5 μL of KHSO5 or 5 μL of H2O2 or 5 μL of ascorbate in double-distilled water. Preincubation of DNA and metalloporphyrins or iron-bleomycin complex was performed for about 15 min. The digestion time in the presence of KHSO5 was 10 min, of H2O2 was 30 min and of ascorbate was 30 min at 20° C. DNA cleavage was monitored by agarose gel electrophoresis. Reactions with KHSO5 were first quenched by 2 μL of 100 mM Hepes buffer, pH 8. In all cases, reactions were quenched by 5 μL of a stopping reagent. The stopping reagent consisted of 250 mM Hepes buffer, pH 7.4, containing 75% glycerol and 0.05% bromophenol blue. Reaction mixtures were then run in 0.8% agarose slab horizontal gel containing ethidium bromide […], at constant current (25 mA for 15h), in 89 mM Tris-borate buffer and 2.5 mM EDTA pH 8.3. Bands were located by WV light (254 nm), photographed, and quantitated by microdensitometry. The correction coefficient 1.47±0.30 was used for decreased stainability of form I DNA vs form II DNA and form III DNA.

## C[n+]1ccc(-c2c3nc(c(-c4cc[n+](C)cc4)c4ccc([n-]4)c(-c4cc[n+](C)cc4)c4nc(c(-c5cc[n+](C)cc5)c5ccc2[n-]5)C=C4)C=C3)cc1.[Mn+3] [MnTMPyP, 5, 10, 15, 20 meso-tetrakis(4-methylpyridiniumyl)porphyrinato-manganese (III), reference compound]
[1]
  Cyt C SOD 1/(IC50, μM): 0.143 µM⁻¹
[2]
  oxidative DNA cleavage (literature statement): able to generate DNA damage at nanomolar concentrations
[3]
  CATALASE* Rate at 20 mins.: 3.4 nmole H2O2/nmole Structural Formula compound
[4]
  CATALASE** H2O2 Consumption: 31.1 nmole H2O2/nmole Structural Formula compound
[5]
  PEROXIDASE Initial Rate: 0.0672 change in absorbance per min.
[6]; KHSO5 10 μM
  S (single-strand breaks per DNA molecule): 15.3 SSBs
  form % I: 1%
  form % II: 86%
  form % III: 13%
[6]; without KHSO5
  S (single-strand breaks per DNA molecule): 0.03 SSBs
  form % I: 90%
  form % II: 10%
  form % III: 0%
[6]; same concentration (10 nM), with KHSO5, from experiments 6, 9 and 10
  times more active in DNA cleavage than Structural Formula V: 1527 times
